Reference: publication PMC4319893, “Targeting Protein-Protein Interactions with Trimeric Ligands: High Affinity Inhibitors of the MAGUK Protein Family” (PLoS ONE, 2015)

Tests used:
PSD-95 PDZ1-2-3 = molecular target: T1, PSD-95 PDZ1-2-3 (Homo sapiens, UniProt P78352); assay: Fluorescence polarization (FP) binding assay, PSD-95 PDZ1-2-3
T1 construct: 7xHis; made in house; host or cells: E. coli BL21(DE3)pLysS
Method: (§1) The monomeric FP assay was conducted as previously described except that the proteins were diluted in 50 mM TRIS, 100 mM NaCl, 1 mM ethylenediaminetetraacetate (EDTA), 1 mM DTT.[34] The monomeric probe was only used when monomeric binding to PSD95 PDZ1-2 and PSD95 PDZ1-2-3 was evaluated, whereas 18 was used as probe for evaluating the binding of the dimeric and trimeric ligands. […] In all of the experiments a blank (buffer) and a reference sample (0.5 nM probe in buffer) were used. A total of 30 μl was pipetted into the wells of a 384 flat black bottom well plate. The FP was measured on a Tecan Safire 2 microplate reader (Tecan Group LTD., Männedorf, Germany). The absorption/emission wavelengths were set to 635/670 nm, corresponding to the Cy5 spectra. The obtained IC50 values were converted to K i values using the equations described by Nikolovska-Coleska et al.[35] […] Consequently, the Ki-value will become negative when the difference between the IC50-value and the Kd is too great.[35, 36]

FL PSD-95 (I195W) = molecular target: T2, FL PSD-95 (I195W) (Homo sapiens, UniProt P78352, I195W); assay: Stopped-flow spectrometry binding kinetics, FL PSD-95 I195W; details: 50 mM potassium phosphate pH 7.5, 10°C
T2 construct: PSD-95 FL: 61-end; made in house; host or cells: E. coli (pET32m3C vector; QuickChange mutagenesis)
Method: (§2) Kinetic experiments using stopped-flow were carried out under the conditions used previously,[37, 38] namely in 50 mM potassium phosphate, pH 7.5 at 10°C. The change in fluorescence upon binding was monitored with a 330 nm band-pass filter following excitation at 280 nm. […] Regarding the fluorophores and the observed changes in fluorescence, several events contribute to the observed signal. […] This could be either through FRET or by absorbing excitation light. Both fluorophores are also themselves excited at 280 nm (less) and 330 nm (more) and their intrinsic fluorescence may change on binding to the proteins.
(§3) This observed rate constant might be the average of the two k obs values observed upon excitation at 280 nm/emission at 330 nm.

FL PSD-95 (I100W) = molecular target: T3, FL PSD-95 (I100W) (Homo sapiens, UniProt P78352, I100W); assay: Stopped-flow spectrometry binding kinetics, FL PSD-95 I100W; details: 50 mM potassium phosphate pH 7.5, 10°C
T3 construct: PSD-95 FL: 61-end; made in house; host or cells: E. coli (pET32m3C vector; QuickChange mutagenesis)
Method: as §2, §3

PSD-95 PDZ1-2 = PSD-95 PDZ1-2 (Homo sapiens, UniProt P78352); details: FP
Method: as §1

FL PSD-95 wild-type = molecular target: T4, FL PSD-95 wild-type (Homo sapiens, UniProt P78352); assay: Stopped-flow spectrometry binding kinetics, FL PSD-95 wild-type; details: 50 mM potassium phosphate pH 7.5, 10°C
T4 construct: PSD-95 FL: 61-end; made in house; host or cells: E. coli (pET32m3C vector; construct donated by M. Zhang)
Method: as §2, §3

single PDZ3 domain = tested on: single PDZ3 domain; set-up: method as in PMID 21653701; details: observed previously; cited from earlier work

YKQTSV [Compound 1]
fold lower affinity compared to trimeric ligand 17, PDZ1-2-3 (PSD-95 PDZ1-2-3): > 1000 fold
kon app, PSD-95 FL I195W (FL PSD-95 (I195W)): 6.3e+06 ± 130000 M⁻¹ s⁻¹
kon app, PSD-95 FL I100W (FL PSD-95 (I100W)): 6.3e+06 ± 190000 M⁻¹ s⁻¹
fold lower affinity compared to trimeric ligand 17, PDZ1-2 (PSD-95 PDZ1-2): > 1000 fold
kon app, PSD-95 wild-type (FL PSD-95 wild-type): 6e+06 ± 100000 M⁻¹ s⁻¹

dansyl-1: N-terminally dansylated CRIPT hexapeptide YKQTSV
observed rate constant dansyl-1/PDZ3 (single PDZ3 domain): 1.6 s⁻¹
